The test system of the assay is transgenic mice that express both human CETP and human apolipoprotein A-1. The assay is described as follows: Assay of plasma lipids in vivo: elevation of HDL cholesterol. Conditions: single oral dose 30 mg/kg; at 8 hr; serum HDL cholesterol relative to control; transgenic mice expressing human CETP and human apolipoprotein A-1. As for the experimental part:
Assay of Plasma Lipids In Vivo.
Activity of compounds of this invention in vivo can be determined by the level of elevation of HDL cholesterol relative to control by a given amount of compound in a CETP-containing animal species. A strain of transgenic mice that express both human CETP and human apolipoprotein A-1 (Taconic, Germantown, N.Y.) is used to test compounds of this invention. Test compounds are administered once orally in selected aqueous or oil based vehicles. At various times after dosing, ranging from 4 h to 24 h, blood is obtained. Blood is allowed to clot and serum is obtained by centrifugation. HDL cholesterol levels in the serum is determined by HDL-C plus reagents (Roche/Hitachi, Indianapolis, Ind.) with a clinical chemistry analyzer (Roche/Hitachi, Indianapolis, Ind.). Additional serum lipids can be analyzed by enzymatic methods. Lipids in the VLDL, LDL and HDL fractions are analyzed by enzymatic methods after precipitation or size exclusion chromatography.

On to `Cc1nc2c(cc1C(F)(F)F)N(C(=O)OC(C)C)CCCC2N(Cc1cc(C(F)(F)F)cc(C(F)(F)F)c1)c1nnn(C)n1` (racemic) [Example 14], for which the “% HDL cholesterol increase” value turned out to be 91%.

(Values after patent US20070208003A1, “COMPOUNDS AND METHODS FOR TREATING DYSLIPIDEMIA” (priority 2004, published 2007).)
